Reference: US6395782B1, “Method of increasing longevity and preventing body weight wasting in autoimmune disease by using conjugated linoleic acid” (Wisconsin Alumni Research Foundation, priority 2001, dated 2002)

Experiments:
NZB/W F1 mice [1] = assay: CLA diet given after onset of proteinuria in NZB/W F1 mice (SLE model): survival and body weight; format: in vivo; conditions: p<0.05
From the text: Materials. Conjugated linoleic acid (Natural Lipids Inc, Hovdebygda, Norway) contained 90% CLA (CLA-90) with the following C18:2 isomer distribution: 43.5% t10,c12, 41.9% c9,t11 and t9,c11, 1.5% t9,t11 and t10,t12, 0.9% c9,c11, 0.9% c10,c12. Other fatty acids in CLA-90 were 5.6% oleate, 1.4% palmitate, 0.5% linoleate, 0.4% stearate, and 3.4% unidentified compounds. All other chemicals and reagents were purchased from Sigma Chemical Co. (St. Louis, Mo.) unless specified.
Diet. Semi-purified powdered diet (TD94060, 99% basal mix, Harlan-Teklad, Madison, Wis.) was mixed with 0.5% oil (either CLA or corn oil) and 0.5% sucrose by weight, such that the final diet contained either 5.5% corn oil (control group) or 5% corn oil plus 0.5% CLA (CLA group) (Park Y et al., Lipids 32, 853 (1997)). […]
Animals. […] Once proteinuria was detected the mice were assigned either the control diet or 0.5% conjugated linoleic acid for the remainder of their life. […]
Feed Intake and Body Weight. Weekly body weight and survival of the mice were recorded from the beginning of the experiment to the time of death.
Urine Collection and Proteinuria Assay. […] Plates were mildly shaken for 5 min and the color reactions were read at 600 nm with a microtiter plate reader (Autoreader EL310, Bio-tek Instrument). […]
Statistical Analysis. […] Positive proteinuria ratio was analyzed by Fisher's exact test using a SAS computer program version 5.

NZB/W F1 mice [2] = conditions: dietary CLA fed from weaning onward; cited from earlier work
[3] = tested on: SLE patients and rodent models; assay: Comparison of CLA with n-3 fatty acids in SLE patients and rodent models; format: in vivo; conditions: CLA vs n-3 fatty acids
From the text: Effects similar to those observed by the applicants can be observed using n-3 fatty acids in SLE patients and rodent models (Fernandes, G., et al., J. Immunol. 152:5979 (1994)). […] To have similar effects of 0.5% diet CLA, as described below, n-3 fatty acids would have to make up about 10% of the diet.

## Conjugated linoleic acid [CLA]
NZB/W F1 mice [1]; 0.5% CLA in diet from detection of proteinuria (1 mg protein/ml urine) until death, vs 5.5% corn oil control diet, female NZB/W F1 mice
  prolonging of life span (lived longer than control diet): 55%
NZB/W F1 mice [1]; 0.5% CLA in diet from detection of proteinuria until death, vs control diet, NZB/W F1 mice
  reduction of body weight wasting (control lost more body weight than CLA diet): 35%
NZB/W F1 mice [2]
  anti-DNA antibody production: does not significantly affect
  body weight loss vs control mice: lost less body weight
  onset of proteinuria: accelerates the onset of proteinuria
  survival from the onset of proteinuria vs control mice: lived longer
  total lifespan vs control animals: did not differ
[3]
  effectiveness relative to n-3 fatty acids in comparable methods: about 20 times
